# Laboratory results published in patent publication US6660742B2, “Compositions and methods of the use thereof achiral analogues of CC-1065 and the duocarmycins” (priority 2000, dated 2003).
# Where two headings read alike, the source gives them in different places.
# Key:
# NCI-H226 = test: NCI screen, NCI-H226 (Non-Small Cell Lung Cancer); assay type: cell-based, human
# Method: (§1) The compounds of this invention were also tested against the panel of 60 human cancer cell lines at the National Cancer Institute, Bethesda, Md. […] The cytrotoxicity studies were conducted using a 48 hour exposure, and measuring the optical density of sulforhodamide B-derived color.
# IGROV1 = test: NCI screen, IGROV1 (Ovarian Cancer); assay type: cell-based, human; settings: IGROV1, 48 hour exposure
# Method: as §1
# MCF7/ADR-RES = test: NCI screen, MCF7/ADR-RES (Breast Cancer); assay type: cell-based, human; settings: NCI/ADR-RES, 48 hour exposure
# Method: as §1
# M14 = test: NCI screen, M14 (Melanoma); settings: M14, 48 hour exposure
# Method: as §1
# K-562 = test: NCI screen, K-562 (Leukemia)
# Method: as §1
# MOLT-4 = test: NCI screen, MOLT-4 (Leukemia)
# Method: as §1
# SF-268 = test: NCI screen, SF-268 (CNS Cancer); settings: SF-268, 48 hour exposure
# Method: (§2) The compounds of this invention were also tested against the panel of 60 human cancer cell lines at the National Cancer Institute, Bethesda, Md. (44). The cytrotoxicity studies were conducted using a 48 hour exposure, and measuring the optical density of sulforhodamide B-derived color.
# SF-539 = test: NCI screen, SF-539 (CNS Cancer)
# Method: as §1
# SNB-75 = test: NCI screen, SNB-75 (CNS Cancer); settings: SNB-75, 48 hour exposure
# Method: as §1
# SK-MEL-28 = test: NCI screen, SK-MEL-28 (Melanoma)
# Method: as §1
# 786-0 = test: NCI screen, 786-0 (Renal Cancer)
# Method: as §1
# SN12C = test: NCI screen, SN12C (Renal Cancer)
# Method: as §1
# MCF7 = test: NCI screen, MCF7 (Breast Cancer)
# Method: as §1
# MDA-N = test: NCI screen, MDA-N (Breast Cancer); settings: MDA-N, 48 hour exposure
# Method: as §1
# RXF 393 = test: NCI screen, RXF 393 (Renal Cancer)
# Method: as §1
# BT-549 = test: NCI screen, BT-549 (Breast Cancer); settings: BT-549, 48 hour exposure
# Method: as §2
# OVCAR-3 = test: NCI screen, OVCAR-3 (Ovarian Cancer)
# Method: as §1
# OVCAR-8 = test: NCI screen, OVCAR-8 (Ovarian Cancer); settings: OVCAR-8, 48 hour exposure
# Method: as §2
# NCI-H522 = test: NCI screen, NCI-H522 (Non-Small Cell Lung Cancer)
# Method: as §1
# [1] = Log10 Concentration −4.3, 48 hour exposure
# [2] = Log10 Concentration −5.3, 48 hour exposure
# [3] = Log10 Concentration −6.3, 48 hour exposure
# [4] = Log10 Concentration −7.3, 48 hour exposure
# [5] = Log10 Concentration −8.3, 48 hour exposure
smiles,measurement,setting,value
"COC(=O)c1[nH]c2c(O)cc(NC(=O)c3cc4cc(OC)c(OC)c(OC)c4[nH]3)c(CCCl)c2c1C(=O)OC [Compound 22, Dimethyl 4-(2-chloroethyl)-7-hydroxy-5-(5,6,7-trimethoxyindole-2-carboxamido)indole-2,3-dicarboxylate]",TGI,NCI-H226; 48 hour exposure,2.21E−07 Molar
same,Percent Growth,NCI-H226; [1],−76%
same,Percent Growth,NCI-H226; [2],−55%
same,Percent Growth,NCI-H226; [3],−38%
same,Percent Growth,NCI-H226; [4],69%
same,Percent Growth,NCI-H226; [5],104%
same,TGI,IGROV1,1.62E−07 Molar
same,Percent Growth,IGROV1; Log10 Concentration −4.3,−80%
same,Percent Growth,IGROV1; Log10 Concentration −5.3,−35%
same,Percent Growth,IGROV1; Log10 Concentration −6.3,−59%
same,Percent Growth,IGROV1; Log10 Concentration −7.3,61%
same,Percent Growth,IGROV1; Log10 Concentration −8.3,71%
same,TGI,MCF7/ADR-RES,8.17E−07 Molar
same,Percent Growth,MCF7/ADR-RES; Log10 Concentration −4.3,−41%
same,Percent Growth,MCF7/ADR-RES; Log10 Concentration −5.3,−58%
same,Percent Growth,MCF7/ADR-RES; Log10 Concentration −6.3,16%
same,Percent Growth,MCF7/ADR-RES; Log10 Concentration −7.3,77%
same,Percent Growth,MCF7/ADR-RES; Log10 Concentration −8.3,97%
same,Percent Growth,A549/ATCC; [1],5%
same,Percent Growth,A549/ATCC; [2],12%
same,Percent Growth,A549/ATCC; [3],−6%
same,Percent Growth,A549/ATCC; [4],93%
same,Percent Growth,A549/ATCC; [5],108%
same,TGI,KM12,2.03E−07 Molar
same,TGI,M14,1.68E−07 Molar
same,Percent Growth,M14; Log10 Concentration −4.3,−92%
same,Percent Growth,M14; Log10 Concentration −5.3,−90%
same,Percent Growth,M14; Log10 Concentration −6.3,−69%
same,Percent Growth,M14; Log10 Concentration −7.3,77%
same,Percent Growth,M14; Log10 Concentration −8.3,105%
same,TGI,K-562; 48 hour exposure,>5.00E−05 Molar
same,Percent Growth,K-562; [1],36%
same,Percent Growth,K-562; [2],34%
same,Percent Growth,K-562; [3],43%
same,Percent Growth,K-562; [4],77%
same,Percent Growth,K-562; [5],94%
same,TGI,MOLT-4; 48 hour exposure,>5.00E−05 Molar
same,Percent Growth,MOLT-4; [1],22%
same,Percent Growth,MOLT-4; [2],20%
same,Percent Growth,MOLT-4; [3],21%
same,Percent Growth,MOLT-4; [4],28%
same,Percent Growth,MOLT-4; [5],61%
same,TGI,SF-268,8.40E−08 Molar
same,Percent Growth,SF-268; Log10 Concentration −4.3,−58%
same,Percent Growth,SF-268; Log10 Concentration −5.3,−63%
same,Percent Growth,SF-268; Log10 Concentration −6.3,−42%
same,Percent Growth,SF-268; Log10 Concentration −7.3,12%
same,Percent Growth,SF-268; Log10 Concentration −8.3,80%
same,TGI,SF-539; 48 hour exposure,2.07E−07 Molar
same,Percent Growth,SF-539; [1],−90%
same,Percent Growth,SF-539; [2],−84%
same,Percent Growth,SF-539; [3],−47%
same,Percent Growth,SF-539; [4],75%
same,Percent Growth,SF-539; [5],89%
same,TGI,SNB-75,1.90E−07 Molar
same,Percent Growth,SNB-75; Log10 Concentration −4.3,−51%
same,Percent Growth,SNB-75; Log10 Concentration −5.3,−84%
same,Percent Growth,SNB-75; Log10 Concentration −6.3,−44%
same,Percent Growth,SNB-75; Log10 Concentration −7.3,60%
same,Percent Growth,SNB-75; Log10 Concentration −8.3,77%
same,TGI,SK-MEL-28; 48 hour exposure,1.82E−06 Molar
same,Percent Growth,SK-MEL-28; [1],−43%
same,Percent Growth,SK-MEL-28; [2],−11%
same,Percent Growth,SK-MEL-28; [3],14%
same,Percent Growth,SK-MEL-28; [4],92%
same,Percent Growth,SK-MEL-28; [5],91%
same,TGI,786-0; 48 hour exposure,4.92E−07 Molar
same,Percent Growth,786-0; [1],−50%
same,Percent Growth,786-0; [2],−26%
same,Percent Growth,786-0; [3],−1%
same,Percent Growth,786-0; [4],82%
same,Percent Growth,786-0; [5],94%
same,TGI,SN12C; 48 hour exposure,7.17E−06 Molar
same,Percent Growth,SN12C; [1],−50%
same,Percent Growth,SN12C; [2],9%
same,Percent Growth,SN12C; [3],22%
same,Percent Growth,SN12C; [4],84%
same,Percent Growth,SN12C; [5],90%
same,TGI,MCF7; 48 hour exposure,6.31E−06 Molar
same,Percent Growth,MCF7; [1],−51%
same,Percent Growth,MCF7; [2],6%
same,Percent Growth,MCF7; [3],6%
same,Percent Growth,MCF7; [4],39%
same,Percent Growth,MCF7; [5],70%
same,Percent Growth,MDA-N; Log10 Concentration −4.3,8%
same,Percent Growth,MDA-N; Log10 Concentration −5.3,−3%
same,Percent Growth,MDA-N; Log10 Concentration −6.3,5%
same,Percent Growth,MDA-N; Log10 Concentration −7.3,91%
same,Percent Growth,MDA-N; Log10 Concentration −8.3,90%
same,TGI,RXF 393; 48 hour exposure,1.31E−06 Molar
same,Percent Growth,RXF 393; [1],−65%
same,Percent Growth,RXF 393; [2],−25%
same,Percent Growth,RXF 393; [3],18%
same,Percent Growth,RXF 393; [4],57%
same,Percent Growth,RXF 393; [5],94%
same,TGI,BT-549,1.23E−05 Molar
same,Percent Growth,BT-549; Log10 Concentration −4.3,−39%
same,Percent Growth,BT-549; Log10 Concentration −5.3,25%
same,Percent Growth,BT-549; Log10 Concentration −6.3,42%
same,Percent Growth,BT-549; Log10 Concentration −7.3,85%
same,Percent Growth,BT-549; Log10 Concentration −8.3,91%
same,TGI,OVCAR-3; 48 hour exposure,6.80E−06 Molar
same,Percent Growth,OVCAR-3; [1],−82%
same,Percent Growth,OVCAR-3; [2],13%
same,Percent Growth,OVCAR-3; [3],4%
same,Percent Growth,OVCAR-3; [4],87%
same,Percent Growth,OVCAR-3; [5],97%
same,TGI,OVCAR-8,2.33E−07 Molar
same,Percent Growth,OVCAR-8; Log10 Concentration −4.3,−64%
same,Percent Growth,OVCAR-8; Log10 Concentration −5.3,−65%
same,Percent Growth,OVCAR-8; Log10 Concentration −6.3,−32%
same,Percent Growth,OVCAR-8; Log10 Concentration −7.3,65%
same,Percent Growth,OVCAR-8; Log10 Concentration −8.3,86%
same,TGI,NCI-H522; 48 hour exposure,1.47E−07 Molar
same,Percent Growth,NCI-H522; [1],−96%
same,Percent Growth,NCI-H522; [2],−86%
same,Percent Growth,NCI-H522; [3],−66%
same,Percent Growth,NCI-H522; [4],58%
same,Percent Growth,NCI-H522; [5],74%
